The values below come from ChEMBL document CHEMBL1759874, “Feruloylacetone as the model compound of half-curcumin: synthesis and antioxidant properties” (2011).

Molecules are shown by their SMILES. Activity calls are given as the source filed them. The rule behind the calls is not given here.

System in one assay: not listed separately
As to the kind of experiment: Antioxidant activity assessed as ABTS free radical scavenging activity at 50 uM. The assay is classed as functional.
Conditions: not given
With `COc1cc(CCC(=O)CC(C)=O)ccc1O`, the Activity stood at 3.85 µM/min.
Still for that read-out and setting: as for `CC(=O)CC(=O)/C=C/c1ccc(O)c(O)c1`, the figure is 7.56 µM/min; as for `COc1cc(/C=C/C(O)CC(C)O)ccc1O` (stereo not given), 6.26 µM/min; as for `COc1cc(/C=C/C(=O)CC(C)=O)ccc1O`, 6.04 µM/min.
For the compound `CCOC(=O)/C(=C/c1ccc(O)c(OC)c1)C(C)=O`, the Activity is 1.78 µM/min.

Another assay deals with Radical scavenging activity. Briefly: Antioxidant activity assessed as DPPH free radical scavenging activity at 50 uM. The assay is classed as functional.
Conditions: not given
(DPPH is a stable violet radical that fades when it is reduced.)
`COc1cc(CCC(=O)CC(C)=O)ccc1O`: the Activity stood at 16.9 µM/min.
In the case of `CC(=O)CC(=O)/C=C/c1ccc(O)c(O)c1`, the Activity was 41.2 µM/min.
Still for that read-out and setting: the figure for `COc1cc(/C=C/C(O)CC(C)O)ccc1O` (stereo not given) is 8.57 µM/min.
Same read-out and setting: the figure for `COc1cc(/C=C/C(=O)CC(C)=O)ccc1O` is 22.3 µM/min; for `CCOC(=O)/C(=C/c1ccc(O)c(OC)c1)C(C)=O` it is 7.54 µM/min.

System in the next assay: not listed separately
Briefly: Antioxidant activity assessed as galvinoxyl free radical scavenging activity at 25 uM.
Conditions: not given
The assay is classed as functional.
In the case of `COc1cc(CCC(=O)CC(C)=O)ccc1O`, the Activity amounted to 0.06 µM/min.
Same read-out and setting: as for `CC(=O)CC(=O)/C=C/c1ccc(O)c(O)c1`, the figure is 0.08 µM/min; as for `COc1cc(/C=C/C(O)CC(C)O)ccc1O` (stereo not given), 0.13 µM/min.
The same measure, in the same setting: as for `COc1cc(/C=C/C(=O)CC(C)=O)ccc1O`, the figure is 0.13 µM/min; as for `CCOC(=O)/C(=C/c1ccc(O)c(OC)c1)C(C)=O`, 0.02 µM/min.

System in a further assay: not listed separately
Briefly: Antioxidant activity against singlet oxygen radicals assessed as decrease of 4-nitroso-N,N-dimethylaniline decolorization at 250 uM after 40 mins by quenching assay. The class given is functional.
Conditions: not given
Consider `CCOC(=O)/C(=C/c1ccc(O)c(OC)c1)C(C)=O`, for which the result was Active.

System in the next assay: not listed separately
As to the kind of experiment: Antioxidant activity against singlet oxygen radicals assessed as decrease of 4-nitroso-N,N-dimethylaniline decolorization at 150 uM after 40 mins by quenching assay. The class given is functional.
Conditions: not given
In the case of `COc1cc(/C=C/C(=O)CC(C)=O)ccc1OCc1ccccc1`, the result was Active.

System in a further assay: not listed separately
As to the kind of experiment: Antioxidant activity against singlet oxygen radicals assessed as decrease of 4-nitroso-N,N-dimethylaniline decolorization after 40 mins by quenching assay. The class given is functional.
Conditions: not given
In the case of `COc1cc(CCC(=O)CC(C)=O)ccc1O`, the Activity result is “Dose-dependent effect”.
As to `CC(=O)CC(=O)/C=C/c1ccc(O)c(O)c1`, the Activity entry is “Dose-dependent effect”.
The same measure, in the same setting: as for `COc1cc(/C=C/C(=O)CC(C)=O)ccc1OCc1ccccc1`, the entry is “Dose-dependent effect”.
Same read-out and setting: the entry for `COc1cc(/C=C/C(=O)CC(C)=O)ccc1O` is “Dose-dependent effect”; for `CCOC(=O)/C(=C/c1ccc(O)c(OC)c1)C(C)=O` it is “Dose-dependent effect”.

System in another assay: not listed separately
Briefly: Antioxidant activity against protection of autooxidation of linoleic acid at 50 uM by beta-carotene bleaching test. The assay is classed as functional.
Conditions: not given
With `COc1cc(CCC(=O)CC(C)=O)ccc1O`, the outcome was inactive.
On the same count and under the same terms, as for `CC(=O)CC(=O)/C=C/c1ccc(O)c(O)c1`, the entry is “Active”; as for `COc1cc(/C=C/C(O)CC(C)O)ccc1O` (stereo not given), “Active”.
Still for that read-out and setting: as for `COc1cc(/C=C/C(=O)CC(C)=O)ccc1OCc1ccccc1`, the entry is “inactive”.
On the same count and under the same terms, as for `COc1cc(/C=C/C(=O)CC(C)=O)ccc1O`, the entry is “Active”; as for `CCOC(=O)/C(=C/c1ccc(O)c(OC)c1)C(C)=O`, “inactive”.

System in the next assay: not listed separately
Briefly: Antioxidant activity against AAPH-induced methyl linoleate oxidation at 50 uM after 120 mins by beta-carotene bleaching test. The class given is functional.
Conditions: not given
For `COc1cc(/C=C/C(=O)CC(C)=O)ccc1OCc1ccccc1`, the result was inactive.
Take `CCOC(=O)/C(=C/c1ccc(O)c(OC)c1)C(C)=O`: the result was inactive.

The same assay, now with this note: TDE = time-dependent effect.
As for `COc1cc(CCC(=O)CC(C)=O)ccc1O`, the Activity entry is “tde”.
The same measure, in the same setting: as for `CC(=O)CC(=O)/C=C/c1ccc(O)c(O)c1`, the entry is “tde”; as for `COc1cc(/C=C/C(O)CC(C)O)ccc1O` (stereo not given), “tde”.
The same measure, in the same setting: as for `COc1cc(/C=C/C(=O)CC(C)=O)ccc1O`, the entry is “tde”.

System in another assay: not listed separately
As to the kind of experiment: Antioxidant activity against Cu2+/GSH-induced oxidation of DNA assessed as TBARS production at 0.2 mM after 30 mins. The class given is functional.
Conditions: not given
Consider `CC(=O)CC(=O)/C=C/c1ccc(O)c(O)c1`, for which the result was Active.
Same read-out and setting: as for `COc1cc(/C=C/C(=O)CC(C)=O)ccc1O`, the entry is “Active”.

System in another assay: not listed separately
Briefly: Antioxidant activity against hydroxyl radical-induced DNA damage assessed as TBARS production at 0.2 mM after 30 mins. The class given is functional.
Conditions: not given
Regarding `COc1cc(CCC(=O)CC(C)=O)ccc1O`, the result was Active.
On to `CC(=O)CC(=O)/C=C/c1ccc(O)c(O)c1`, for which the result was Active.
The same measure, in the same setting: as for `COc1cc(/C=C/C(O)CC(C)O)ccc1O` (stereo not given), the entry is “Active”; as for `COc1cc(/C=C/C(=O)CC(C)=O)ccc1OCc1ccccc1`, “Active”.
The same measure, in the same setting: as for `COc1cc(/C=C/C(=O)CC(C)=O)ccc1O`, the entry is “Active”.
The same measure, in the same setting: as for `CCOC(=O)/C(=C/c1ccc(O)c(OC)c1)C(C)=O`, the entry is “Active”.

System in a further assay: not listed separately
As to the kind of experiment: Antioxidant activity against AAPH-induced DNA damage assessed as TBARS production. The assay is classed as functional.
Conditions: not given
Regarding `COc1cc(CCC(=O)CC(C)=O)ccc1O`, the outcome was Active.
The same measure, in the same setting: as for `CC(=O)CC(=O)/C=C/c1ccc(O)c(O)c1`, the entry is “Active”; as for `COc1cc(/C=C/C(O)CC(C)O)ccc1O` (stereo not given), “Active”.
As for `COc1cc(/C=C/C(=O)CC(C)=O)ccc1OCc1ccccc1`, the result was Active.
On the same count and under the same terms, as for `COc1cc(/C=C/C(=O)CC(C)=O)ccc1O`, the entry is “Active”; as for `CCOC(=O)/C(=C/c1ccc(O)c(OC)c1)C(C)=O`, “Active”.

System in a further assay: not listed separately
As to the kind of experiment: Antioxidant activity against AAPH-induced hemolysis in human erythrocytes assessed as inhibition time. The class given is functional, Erythrocyte.
Conditions: not given
Consider `COc1cc(CCC(=O)CC(C)=O)ccc1O`, for which the Time turned out to be 3.48 min.
The same measure, in the same setting: as for `CC(=O)CC(=O)/C=C/c1ccc(O)c(O)c1`, the figure is 3.92 min.
On the same count and under the same terms, as for `COc1cc(/C=C/C(=O)CC(=O)/C=C/c2ccc(O)c(OC)c2)ccc1O` [CURCUMIN], the figure is 3.45 min.
Still for that read-out and setting: as for `COc1cc(/C=C/C(O)CC(C)O)ccc1O` (stereo not given), the figure is 2.05 min; as for `COc1cc(/C=C/C(=O)CC(C)=O)ccc1OCc1ccccc1`, 3.3 min.
In the case of `COc1cc(/C=C/C(=O)CC(C)=O)ccc1O`, the Time amounted to 2.38 min.
The same measure, in the same setting: the figure for `CCOC(=O)/C(=C/c1ccc(O)c(OC)c1)C(C)=O` is 1.83 min.

Another assay has as its system Erythrocyte. Briefly: Antioxidant activity in human erythrocytes assessed as inhibition of hemin-induced hemolysis after 30 mins. The assay is classed as functional, cell-based.
Conditions: not given
On to `COc1cc(CCC(=O)CC(C)=O)ccc1O`, for which the Activity entry was “Dose-dependent effect”.
Still for that read-out and setting: the entry for `CC(=O)CC(=O)/C=C/c1ccc(O)c(O)c1` is “Dose-dependent effect”; for `CCOC(=O)/C(=C/c1ccc(O)c(OC)c1)C(C)=O` it is “Dose-dependent effect”.

System in the next assay: not listed separately
As to the kind of experiment: Antioxidant activity against AAPH-induced hemolysis in human erythrocytes assessed as inhibition time at 18 uM. The assay is classed as functional, Erythrocyte.
Conditions: not given
Take `COc1cc(/C=C/C(=O)CC(C)=O)ccc1OCc1ccccc1`: the Time is listed as 80 min.

System in another assay: not listed separately
As to the kind of experiment: Antioxidant activity against AAPH-induced hemolysis in human erythrocytes assessed as inhibition time at 36 uM.
Conditions: not given
The assay is classed as functional, Erythrocyte.
As to `COc1cc(/C=C/C(=O)CC(C)=O)ccc1OCc1ccccc1`, the Time is given as 56 min.

Another assay relates to Erythrocyte. Briefly: Antioxidant activity against AAPH-induced hemolysis in human erythrocytes at 54 uM. The class given is functional, cell-based.
Conditions: not given
As to `COc1cc(/C=C/C(=O)CC(C)=O)ccc1OCc1ccccc1`, the result was Active.

System in a further assay: not listed separately
Briefly: Antioxidant activity against AAPH-induced DNA damage assessed as inhibition period for TBARS production. The class given is functional.
Conditions: not given
Consider `COc1cc(CCC(=O)CC(C)=O)ccc1O`, for which the TIME turned out to be 0.0318 h.
The same measure, in the same setting: as for `CC(=O)CC(=O)/C=C/c1ccc(O)c(O)c1`, the figure is 0.0428 h.
Still for that read-out and setting: the figure for `COc1cc(/C=C/C(=O)CC(=O)/C=C/c2ccc(O)c(OC)c2)ccc1O` [CURCUMIN] is 0.0405 h; for `COc1cc(/C=C/C(O)CC(C)O)ccc1O` (stereo not given) it is 0.0185 h.
The same measure, in the same setting: as for `COc1cc(/C=C/C(=O)CC(C)=O)ccc1O`, the figure is 0.0237 h; as for `CCOC(=O)/C(=C/c1ccc(O)c(OC)c1)C(C)=O`, 0.0137 h.

For a further assay, the system named is Erythrocyte. Briefly: Antioxidant activity in human erythrocytes assessed as inhibition of hemin-induced hemolysis at up to 120 uM after 30 mins. The class given is functional, cell-based.
Conditions: not given
On to `COc1cc(/C=C/C(O)CC(C)O)ccc1O` (stereo not given), for which the result was inactive.
As to `COc1cc(/C=C/C(=O)CC(C)=O)ccc1OCc1ccccc1`, the result was inactive.
Still for that read-out and setting: as for `COc1cc(/C=C/C(=O)CC(C)=O)ccc1O`, the entry is “inactive”.

System in another assay: not listed separately
As to the kind of experiment: Antioxidant activity against singlet oxygen radicals assessed as decrease of 4-nitroso-N,N-dimethylaniline decolorization at up to 240 uM after 40 mins by quenching assay. The class given is functional.
Conditions: not given
Turning to `COc1cc(/C=C/C(O)CC(C)O)ccc1O` (stereo not given), the result was inactive.

System in another assay: not listed separately
As to the kind of experiment: Antioxidant activity against AAPH-induced methyl linoleate oxidation assessed as inhibition period at 50 uM by beta-carotene bleaching test. The class given is functional.
Conditions: not given
Turning to `COc1cc(CCC(=O)CC(C)=O)ccc1O`, the TIME was determined as 2.67 h.
Regarding `CC(=O)CC(=O)/C=C/c1ccc(O)c(O)c1`, the TIME came out at 3.73 h.
On the same count and under the same terms, the figure for `COc1cc(/C=C/C(O)CC(C)O)ccc1O` (stereo not given) is 1.95 h; for `COc1cc(/C=C/C(=O)CC(C)=O)ccc1O` it is 3.68 h.
